In PubChem BioAssay AID330 (DTP/NCI, 2004):
Values joined by “and” are separate entries in the source; they are usually repeats but may differ in a detail not shown here. Identical values can stand only once. Inconclusive results and toxic doses are left out.

Test system: P388 leukemia ip, CD2F1 mice, survival T/C
Test: NCI In Vivo Anticancer Drug Screen. Data for tumor model P388 Leukemia (intraperitoneal) in CD2F1 (CDF1) mice
Conditions: endpoint: median survival time, higher = longer survival
Summary of the method: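 Mice carrying the transplanted tumor received test compound or vehicle. Survival was recorded in each group, and the value is the treated-group measurement divided by that of the vehicle-treated control group.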

[1] = dose: 100.0 mg/kg/injection, schedule: Q01DX001 (ip), vehicle: saline with Tween-80
[2] = dose: 12.5 mg/kg/injection, schedule: Q01DX009 (ip), vehicle: saline with Tween-80
[3] = dose: 25.0 mg/kg/injection, schedule: Q01DX009 (ip), vehicle: saline with Tween-80
[4] = dose: 50.0 mg/kg/injection, schedule: Q01DX009 (ip), vehicle: saline with Tween-80
[5] = dose: 50.0 mg/kg/injection, schedule: Q01DX005 (ip), vehicle: Klucel (hydroxypropylcellulose) (HPC)
[6] = dose: 100.0 mg/kg/injection, schedule: Q01DX005 (ip), vehicle: Klucel (hydroxypropylcellulose) (HPC)
[7] = dose: 200.0 mg/kg/injection, schedule: Q01DX005 (ip), vehicle: Klucel (hydroxypropylcellulose) (HPC)
[8] = dose: 60.0 mg/kg/injection, schedule: Q01DX005 (ip), vehicle: saline with Tween-80
[9] = dose: 120.0 mg/kg/injection, schedule: Q01DX005 (ip), vehicle: saline with Tween-80
[10] = dose: 240.0 mg/kg/injection, schedule: Q01DX005 (ip), vehicle: saline with Tween-80
[11] = dose: 50.0 mg/kg/injection, schedule: Q01DX009 (ip), vehicle: Klucel (hydroxypropylcellulose) (HPC)
[12] = dose: 100.0 mg/kg/injection, schedule: Q01DX009 (ip), vehicle: Klucel (hydroxypropylcellulose) (HPC)
[13] = dose: 200.0 mg/kg/injection, schedule: Q01DX009 (ip), vehicle: Klucel (hydroxypropylcellulose) (HPC)
[14] = dose: 100.0 mg/kg/injection, schedule: Q01DX009 (ip), vehicle: saline with Tween-80
[15] = dose: 200.0 mg/kg/injection, schedule: Q01DX009 (ip), vehicle: saline with Tween-80
[16] = dose: 100.0 mg/kg/injection, schedule: Q01DX001 (ip), vehicle: Klucel (hydroxypropylcellulose) (HPC)
[17] = dose: 200.0 mg/kg/injection, schedule: Q01DX001 (ip), vehicle: Klucel (hydroxypropylcellulose) (HPC)
[18] = dose: 400.0 mg/kg/injection, schedule: Q01DX001 (ip), vehicle: Klucel (hydroxypropylcellulose) (HPC)

Cc1cc(Oc2ccc(Cl)cc2NC(=O)Nc2cccc(C(F)(F)F)c2)cc(S(=O)(=O)O)c1Cl
T/C [1]: 100 % of control

NC(CO)C(=O)O (centres undefined)
T/C [2]: 102 % of control | T/C [3]: 105 % of control | T/C (dose: 25.0 mg/kg/injection, schedule: Q01DX009 (ip), vehicle: saline): 110 % of control | T/C [4]: 114 % of control | T/C (dose: 50.0 mg/kg/injection, schedule: Q01DX009 (ip), vehicle: saline): 112 % of control [middle of 4 runs] | T/C (dose: 100.0 mg/kg/injection, schedule: Q01DX009 (ip), vehicle: saline): 104 % of control [middle of 4 runs] | T/C (dose: 100.0 mg/kg/injection, schedule: Q04DX003 (ip), vehicle: saline with Tween-80): 99 % of control | T/C (dose: 200.0 mg/kg/injection, schedule: Q01DX009 (ip), vehicle: saline): 110 % of control [middle of 4 runs] | T/C (dose: 200.0 mg/kg/injection, schedule: Q04DX003 (ip), vehicle: saline with Tween-80): 97 % of control | T/C (dose: 400.0 mg/kg/injection, schedule: Q04DX003 (ip), vehicle: saline with Tween-80): 100 % of control

O=c1oc(-c2cccc(C[n+]3ccccc3)c2)nc2cc(Cl)ccc12
T/C (dose: 15.0 mg/kg/injection, schedule: Q01DX005 (ip), vehicle: saline): 98 % of control | T/C (dose: 30.0 mg/kg/injection, schedule: Q01DX005 (ip), vehicle: saline): 100 % of control | T/C (dose: 60.0 mg/kg/injection, schedule: Q01DX005 (ip), vehicle: saline): 102 % of control and 110 % of control

O=C(NC(Cc1ccc(I)cc1)C(=O)O)c1ccc(Br)cc1 (centres undefined)
T/C (dose: 12.5 mg/kg/injection, schedule: Q01DX005 (ip), vehicle: sodium bicarbonate): 104 % of control | T/C (dose: 25.0 mg/kg/injection, schedule: Q01DX005 (ip), vehicle: sodium bicarbonate): 100 % of control | T/C [5]: 98 % of control | T/C (dose: 50.0 mg/kg/injection, schedule: Q01DX005 (ip), vehicle: sodium bicarbonate): 94 % of control | T/C [6]: 98 % of control | T/C (dose: 100.0 mg/kg/injection, schedule: Q01DX005 (ip), vehicle: sodium bicarbonate): 90 % of control and 94 % of control | T/C [7]: 101 % of control

Cc1ccc(NCCN(C)C)c2c(=O)c3c(O)cccc3sc12
T/C (dose: 50.0 mg/kg/injection, schedule: Q01DX009 (ip), vehicle: suspension in saline): 166 % of control

O=C1CC[C@@H]2N1CC2(O)c1ccccc1 (mixture of isomers)
T/C [5]: 96 % of control | T/C [6]: 93 % of control | T/C [7]: 93 % of control

O=C(CNC(=O)Nc1cccc(C(F)(F)F)c1)NNC(=O)Nc1ccc(Cl)c([N+](=O)[O-])c1
T/C [8]: 92 % of control | T/C [9]: 87 % of control | T/C [10]: 92 % of control

O=C(NC(c1ccccc1)c1ccccc1)OCc1c2ccccc2cc2ccccc12
T/C [11]: 88 % of control | T/C [12]: 100 % of control | T/C [13]: 100 % of control

O=C(O)c1cccc(C(=O)O)c1Sc1ccccc1
T/C [1]: 103 % of control | T/C (dose: 200.0 mg/kg/injection, schedule: Q01DX001 (ip), vehicle: saline with Tween-80): 100 % of control | T/C (dose: 400.0 mg/kg/injection, schedule: Q01DX001 (ip), vehicle: saline with Tween-80): 94 % of control

ON=C(C1CC1)C1CC1
T/C [3]: 95 % of control | T/C [4]: 101 % of control | T/C [14]: 104 % of control | T/C [15]: 91 % of control

O=C1CSC(=S)N1c1ccco1
T/C [14]: 100 % of control | T/C [15]: 100 % of control

CN1CC2OC2(c2ccccc2)C(c2ccccc2)C1 (centres undefined)
T/C (dose: 50.0 mg/kg/injection, schedule: Q01DX005 (ip), vehicle: saline with Tween-80): 102 % of control | T/C (dose: 100.0 mg/kg/injection, schedule: Q01DX005 (ip), vehicle: saline with Tween-80): 102 % of control

C=C1C(=O)OC2/C=C(\C)C(OC(C)=O)C/C=C(\C)CC(OC(=O)/C(=C/CO)CO)C12 (centres undefined)
T/C [16]: 99 % of control | T/C [17]: 99 % of control | T/C [18]: 123 % of control

Fc1ccnc(F)n1
T/C (dose: 25.0 mg/kg/injection, schedule: Q04DX003 (ip), vehicle: water): 100 % of control | T/C (dose: 50.0 mg/kg/injection, schedule: Q04DX003 (ip), vehicle: water): 104 % of control

Clc1ccc(S/N=C/c2ccccc2)cc1
T/C [4]: 113 % of control | T/C [14]: 114 % of control

CC12Oc3ccc(Cl)cc3C1(C)c1cc(Cl)ccc1O2 (centres undefined)
T/C (dose: 50.0 mg/kg/injection, schedule: Q01DX009 (ip), vehicle: acetone): 104 % of control | T/C (dose: 100.0 mg/kg/injection, schedule: Q01DX009 (ip), vehicle: acetone): 102 % of control | T/C (dose: 200.0 mg/kg/injection, schedule: Q01DX009 (ip), vehicle: acetone): 102 % of control

CCCC/C([O-])=C1/C(=O)N(c2ccccc2)N=C1C.CCCC/C([O-])=C1/C(=O)N(c2ccccc2)N=C1C.[Cu+2]
T/C [8]: 90 % of control | T/C [9]: 97 % of control | T/C [10]: 96 % of control

O=C(c1ccccc1)c1nc(-c2ccccc2)oc1-c1ccccc1
T/C (dose: 100.0 mg/kg/injection, schedule: Q01DX001 (ip), vehicle: saline): 100 % of control | T/C (dose: 200.0 mg/kg/injection, schedule: Q01DX001 (ip), vehicle: saline): 108 % of control | T/C (dose: 400.0 mg/kg/injection, schedule: Q01DX001 (ip), vehicle: saline): 99 % of control

COC1C(/C=[N+](\[O-])C2C(C3COC(C)(C)O3)OC3OC(C)(C)OC32)OC2OC(C)(C)OC21 (centres undefined)
T/C [11]: 100 % of control | T/C [12]: 103 % of control | T/C [13]: 105 % of control

O=C(c1ccccc1C(=O)N1CCCO1)N1CCCO1
T/C (dose: 60.0 mg/kg/injection, schedule: Q01DX005 (ip), vehicle: Klucel (hydroxypropylcellulose) (HPC)): 93 % of control | T/C (dose: 120.0 mg/kg/injection, schedule: Q01DX005 (ip), vehicle: Klucel (hydroxypropylcellulose) (HPC)): 100 % of control | T/C (dose: 240.0 mg/kg/injection, schedule: Q01DX005 (ip), vehicle: Klucel (hydroxypropylcellulose) (HPC)): 100 % of control

COC(=O)c1ccc(C(=S)OC)cc1
T/C (dose: 100.0 mg/kg/injection, schedule: Q04DX002 (ip), vehicle: saline with Tween-80): 108 % of control | T/C (dose: 200.0 mg/kg/injection, schedule: Q04DX002 (ip), vehicle: saline with Tween-80): 100 % of control | T/C (dose: 400.0 mg/kg/injection, schedule: Q04DX002 (ip), vehicle: saline with Tween-80): 101 % of control

N/C(=N\C(=O)OCc1ccccc1)N(CCCC(NC(=O)OCc1ccccc1)C(=O)O)C(=O)OCc1ccccc1 (centres undefined)
T/C [8]: 104 % of control | T/C [9]: 87 % of control | T/C [10]: 88 % of control

CCOC(=O)C12C=CC(=O)NC1(OC)OC(C)C2 (centres undefined)
T/C [16]: 90 % of control | T/C [17]: 94 % of control | T/C [18]: 93 % of control

O=C(N/C(=C\c1cccc([N+](=O)[O-])c1)c1nc2ccccc2s1)c1ccccc1
T/C [8]: 107 % of control | T/C [9]: 106 % of control | T/C [10]: 110 % of control

Cc1c(-c2ccccc2)ccnc1/C=N/NC(=S)NCc1cccnc1
T/C [2]: 98 % of control | T/C [3]: 96 % of control | T/C [4]: 111 % of control and 122 % of control | T/C [14]: 88 % of control

O=c1cc(-c2ccccc2)[nH]c2[nH]n(-c3ccccc3)c(=O)c12
T/C [8]: 110 % of control | T/C [9]: 104 % of control | T/C [10]: 94 % of control

O=C1c2cc3c(cc2C(=O)c2[nH]ncc21)OCO3
T/C [8]: 92 % of control | T/C [9]: 100 % of control | T/C [10]: 96 % of control

CCOC(=O)c1nc2c(N)nc(-c3ccccc3)nc2[nH]c1=O
T/C [4]: 94 % of control | T/C [14]: 92 % of control | T/C [15]: 97 % of control

CCCCCCCCCCCC(=O)NCC(=O)NC1CC(OC2CC(O)(C(C)=O)Cc3c(O)c4c(c(O)c32)C(=O)c2c(OC)cccc2C4=O)OC(C)C1O (centres undefined)
T/C (dose: 0.75 mg/kg/injection, schedule: Q01DX009 (ip), vehicle: other): 107 % of control | T/C (dose: 1.5 mg/kg/injection, schedule: Q01DX009 (ip), vehicle: other): 108 % of control | T/C (dose: 3.0 mg/kg/injection, schedule: Q01DX009 (ip), vehicle: other): 112 % of control | T/C (dose: 6.0 mg/kg/injection, schedule: Q01DX009 (ip), vehicle: other): 116 % of control | T/C (dose: 12.0 mg/kg/injection, schedule: Q01DX009 (ip), vehicle: other): 99 % of control
